# Laboratory results reported in patent publication US9725434B2, “Hydroxy-substituted orexin receptor antagonists” (MERCK SHARP & DOHME CORP., priority 2013, dated 2017).
# Experiments:
# [1] = biological target: human orexin-2 receptor (hOX2R) (Homo sapiens (Human), UniProt O43614); test: FLIPR Ca2+ Flux Assay, hOX2R; format: cell-based; settings: CHO cells expressing hOX2R; agonist 70 pM Ala-6,12 orexin-A
# Protocol: In a typical experiment the OX1 and OX2 receptor antagonistic activity of the compounds of the present invention was determined in accordance with the following experimental method. For intracellular calcium measurements, Chinese hamster ovary (CHO) cells expressing the rat orexin-1 receptor or the human orexin-2 receptor, are grown in Iscove's modified DMEM containing 2 mM L-glutamine, […], 1% hypoxanthine-thymidine supplement, 100 U/ml penicillin, 100 μg/ml streptomycin and 10% heat-inactivated fetal calf serum (FCS). The cells are seeded at 20,000 cells/well into Becton-Dickinson black 384-well clear bottom sterile plates coated with poly-D-lysine. All reagents were from GIBCO-Invitrogen Corp. The seeded plates are incubated overnight at 37° C. and 5% CO2. Ala-6,12 human orexin-A as the agonist is prepared as a 1 mM stock solution in 1% bovine serum albumin (BSA) and diluted in assay buffer (HBSS containing 20 mM HEPES, 0.1% BSA and 2.5 mM probenecid, pH7.4) for use in the assay at a final concentration of 70 pM. Test compounds are prepared as 10 mM stock solution in DMSO, then diluted in 384-well plates, first in DMSO, then assay buffer. On the day of the assay, cells are washed 3 times with 100 μl assay buffer and then incubated for 60 min (37° C., 5% CO2) in 60 μl assay buffer containing 1 μM Fluo-4AM ester, 0.02% pluronic acid, and 1% BSA. The dye loading solution is then aspirated and cells are washed 3 times with 100 μl assay buffer. 30 μl of that same buffer is left in each well. Within the Fluorescent Imaging Plate Reader (FLIPR, Molecular Devices), test compounds are added to the plate in a volume of 25 μl, incubated for 5 min and finally 25 μl of agonist is added. Fluorescence is measured for each well at 1 second intervals for 5 minutes and the height of each fluorescence peak is compared to the height of the fluorescence peak induced by 70 pM Ala-6,12 orexin-A with buffer in place of antagonist. […] Alternatively, compound potency can be assessed by a radioligand binding assay (described in Bergman et. al. Bioorg. Med. Chem. Lett. 2008, 18, 1425-1430) in which the inhibition constant (Ki) is determined in membranes prepared from CHO cells expressing either the OX1 or OX2 receptor. The intrinsic orexin receptor antagonist activity of a compound which may be used in the present invention may be determined by these assays.
# (§1) Chinese hamster ovary (CHO) cells expressing the human orexin-1 receptor (hOX1R) or the human orexin-2 receptor (hOX2R) were grown in Iscove's modified DMEM containing 2 mM L-glutamine, […], 1% hypoxanthine-thymidine supplement, 100 U/ml penicillin, 100 μg/ml streptomycin and 10% heat-inactivated fetal calf serum (FCS). The cells were seeded at 20,000 cells/well into Becton-Dickinson black 384-well clear bottom sterile plates coated with poly-D-lysine. All reagents were from GIBCO-Invitrogen Corp. The seeded plates were incubated overnight at 37° C. and 5% CO2. Ala-6,12 human orexin-A, used as the agonist, was prepared as a 1 mM stock solution in 1% bovine serum albumin (BSA) and diluted in assay buffer (HBSS containing 20 mM HEPES, 0.1% BSA and 2.5 mM probenecid, pH7.4) for use in the assay at a final concentration of 70 pM. Test compounds were prepared as 10 mM stock solution in DMSO, then diluted in 384-well plates, first in DMSO, then assay buffer.
# On the day of the assay, cells were washed 3× with 100 μl assay buffer and then incubated for 60 minutes (37° C., 5% CO2) in 60 μl assay buffer containing 1 μM Fluo-4AM ester, 0.02% pluronic acid, and 1% BSA. The dye loading solution was then aspirated and cells were washed 3× with 100 μl assay buffer.
# [2] = biological target: human orexin-1 receptor (hOX1R) (Homo sapiens, UniProt O43613); test: FLIPR Ca2+ Flux Assay, hOX1R; format: cell-based; settings: CHO cells expressing hOX1R; agonist 70 pM Ala-6,12 orexin-A
# Protocol: as §1
# On the day of the assay, cells were washed 3× with 100 μl assay buffer and then incubated for 60 minutes (37° C., 5% CO2) in 60 μl assay buffer containing 1 μM Fluo-4AM ester, 0.02% pluronic acid, and 1% BSA. The dye loading solution was then aspirated and cells were washed 3× with 100 μl assay buffer. 30 μl of that same buffer was left in each well. Within the Fluorescent Imaging Plate Reader (FLIPR, Molecular Devices), test compounds were added to the plate in a volume of 25 μl, incubated for 5 minutes, and then 25 μl of agonist was added. Fluorescence was measured for each well at 1 second intervals for 5 minutes, and the height of each fluorescence peak was compared to the height of the fluorescence peak induced by 70 pM of Ala-6,12 orexin-A with buffer in place of test compound.
# human orexin-2 receptor (hOX2R), sequence (O43614 whole entry): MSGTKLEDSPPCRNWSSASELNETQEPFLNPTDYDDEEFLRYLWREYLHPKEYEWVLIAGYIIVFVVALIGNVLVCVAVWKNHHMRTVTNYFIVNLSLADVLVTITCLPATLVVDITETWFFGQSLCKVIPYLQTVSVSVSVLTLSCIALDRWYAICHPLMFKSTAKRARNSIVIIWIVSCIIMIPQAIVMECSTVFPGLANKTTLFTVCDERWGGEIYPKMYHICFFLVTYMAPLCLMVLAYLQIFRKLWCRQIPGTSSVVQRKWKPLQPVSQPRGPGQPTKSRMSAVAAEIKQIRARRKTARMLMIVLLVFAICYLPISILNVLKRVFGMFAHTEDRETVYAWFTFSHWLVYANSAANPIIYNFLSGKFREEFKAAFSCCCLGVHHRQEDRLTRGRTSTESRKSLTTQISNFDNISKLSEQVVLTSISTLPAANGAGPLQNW
compound,measurement,setting,value
"C[C@@H]1CC[C@@H](Oc2cccc3c2CCC[C@]3(C)O)CN1C(=O)c1ccccc1-n1nccn1 [Example 30, (1S)-1-methyl-5-{[(3R,6R)-6-methyl-1-{[2-(2H-1,2,3-triazol-2-yl)phenyl]carbonyl}piperidin-3-yl]oxy}-1,2,3,4-tetrahydronaphthalen-1-ol]",IC50,[1],20 nM
same,IC50,[2],289 nM
"C[C@@H]1CC[C@@H](Oc2ccc3c(c2)C(C)(O)CC3)CN1C(=O)c1ccccc1-n1nccn1 (stereo partly drawn) [Example 33, 1-Methyl-6-{[(3R,6R)-6-methyl-1-{[2-(2H-1,2,3-triazol-2-yl)phenyl]carbonyl}piperidin-3-yl]oxy}-2,3-dihydro-1H-inden-1-ol]",IC50,[1],23 nM
same,IC50,[2],742 nM
"C[C@@H]1CC[C@@H](Oc2cccc(C(C)(O)C(F)F)c2)CN1C(=O)c1ccccc1-n1nccn1 (stereo partly drawn) [Example 36, 1,1-difluoro-2-(3-{[(3R,6R)-6-methyl-1-{[2-(2H-1,2,3-triazol-2-yl)phenyl]carbonyl}piperidin-3-yl]oxy}phenyl)propan-2-ol]",IC50,[1],18 nM
same,IC50,[2],7280 nM
"C[C@@H]1CC[C@@H](Oc2cccc(C(C)(C)O)c2)CN1C(=O)c1ccsc1-n1nccn1 [Example 37, 2-(3-{[(3R,6R)-6-Methyl-1-{[2-(2H-1,2,3-triazol-2-yl)thiophen-3-yl]carbonyl}piperidin-3-yl]oxy}phenyl)propan-2-ol]",IC50,[1],45 nM
same,IC50,[2],10000 nM
"(1R)-1-Methyl-6-{[(3R,6R)-6-methyl-1-{[2-(2H-1,2,3-triazol-2-yl)phenyl]carbonyl}piperidin-3-yl]oxy}-2,3-dihydro-1H-inden-1-ol [Example 34]",IC50,[1],112 nM
same,IC50,[2],1170 nM
"(1S)-1-Methyl-6-{[(3R,6R)-6-methyl-1-{[2-(2H-1,2,3-triazol-2-yl)phenyl]carbonyl}piperidin-3-yl]oxy}-2,3-dihydro-1H-inden-1-ol [Example 35]",IC50,[1],164 nM
same,IC50,[2],3350 nM
